# Reference: publication PMC10033419, “Blocking NS3–NS4B interaction inhibits dengue virus in non-human primates” (Nature, 2023)
# Test system: DENV-1/45AZ5
# Assay: NHP DENV-1 study, serum viral RNA RT-qPCR
# Type: in vivo, rhesus macaques
# Description: WRAIR is fully accredited by AAALAC International.
# Serum samples from macaques were checked for the presence of DENV-1 RNA. Viral RNA for RT–qPCR was extracted from 100–200 µl of serum using the QIAcube instrumentation and the QIAGEN Viral RNA extraction kits. The primers and fluorogenic probes used in the RT–qPCR assays have been previously described[63],[64]. DENV-1 RNA was detected in a 25 µl reaction containing 5 µl of extracted RNA sample, 10 pmol of dengue-specific primers and 5 pmol dengue probe in the reaction mixture from Superscript Ill Platinum One-Step Quantitative RT-PCR Kit (Invitrogen, Thermo Fisher Scientific), consisting of 0.5 µl Superscript III RT/Platinum mix, 12.5 µl 2× reaction mix and 0.05 µl ROX reference dye. The one-step RT–qPCR comprises a 30 min RT step at 50 °C and 2 min of Taq polymerase activation at 94 °C, followed by 40 cycles of PCR at 94 °C for 5 s and 53 °C for 35 s performed in an ABI 7500DX Fast Real Time PCR system. Each assay included positive, negative and non-template controls. The RNA copy number was calculated from a standard curve of tenfold serial dilutions made from RNA in vitro transcripts consisting of DENV-1 with known copy numbers. The LLOQ was 100 genomic copies per reaction.
# This sample size was sufficient to detect a significant difference in the number of infected animals in each of the groups as low as 83%. […] Sample processing and conducting of assays was performed by laboratory technicians not involved in the treatment/manipulation of the animals.
compound,measurement,setting,value
COc1cc(N[C@H](C(=O)c2c[nH]c3ccc(OC(F)(F)F)cc23)c2ccc(Cl)cc2OC)cc(S(C)(=O)=O)c1 [JNJ-1802],qRT-PCR Assay Average GE/mL,"animal R9, Day 29, LOQ 100 GE/reaction",0.00E+00 GE/mL
same,qRT-PCR Assay Result,"animal R10, Day 0",Negative
same,qRT-PCR Assay Average GE/mL,"animal R10, Day 0, Assay LOQ = 100 GE/reaction",0.00E+00 GE/mL
same,qRT-PCR Assay Result,"animal R10, Day 1",Negative
same,qRT-PCR Assay Average GE/mL,"animal R10, Day 1, Assay LOQ = 100 GE/reaction",0.00E+00 GE/mL
same,qRT-PCR Assay Result,"animal R10, Day 2",Negative
same,qRT-PCR Assay Average GE/mL,"animal R10, Day 2, Assay LOQ = 100 GE/reaction",0.00E+00 GE/mL
same,qRT-PCR Assay Result,"animal R10, Day 3",Negative
same,qRT-PCR Assay Average GE/mL,"animal R10, Day 3, Assay LOQ = 100 GE/reaction",0.00E+00 GE/mL
same,qRT-PCR Assay Result,"animal R10, Day 4",Negative
same,qRT-PCR Assay Average GE/mL,"animal R10, Day 4, Assay LOQ = 100 GE/reaction",0.00E+00 GE/mL
same,qRT-PCR Assay Result,"animal R10, Day 5",Negative
same,qRT-PCR Assay Average GE/mL,"animal R10, Day 5, Assay LOQ = 100 GE/reaction",0.00E+00 GE/mL
same,qRT-PCR Assay Result,"animal R10, Day 6",Negative
same,qRT-PCR Assay Average GE/mL,"animal R10, Day 6, Assay LOQ = 100 GE/reaction",0.00E+00 GE/mL
same,qRT-PCR Assay Result,"animal R10, Day 7",Negative
same,qRT-PCR Assay Average GE/mL,"animal R10, Day 7, Assay LOQ = 100 GE/reaction",0.00E+00 GE/mL
same,qRT-PCR Assay Result,"animal R10, Day 8",Negative
same,qRT-PCR Assay Average GE/mL,"animal R10, Day 8, Assay LOQ = 100 GE/reaction",0.00E+00 GE/mL
same,qRT-PCR Assay Result,"animal R10, Day 9",Negative
same,qRT-PCR Assay Average GE/mL,"animal R10, Day 9, Assay LOQ = 100 GE/reaction",0.00E+00 GE/mL
same,qRT-PCR Assay Result,"animal R10, Day 10",Negative
same,qRT-PCR Assay Average GE/mL,"animal R10, Day 10, Assay LOQ = 100 GE/reaction",0.00E+00 GE/mL
same,qRT-PCR Assay Result,"animal R10, Day 11",Negative
same,qRT-PCR Assay Average GE/mL,"animal R10, Day 11, Assay LOQ = 100 GE/reaction",0.00E+00 GE/mL
same,qRT-PCR Assay Result,"animal R10, Day 14",Negative
same,qRT-PCR Assay Average GE/mL,"animal R10, Day 14, Assay LOQ = 100 GE/reaction",0.00E+00 GE/mL
same,qRT-PCR Assay Result,"animal R10, Day 29",Negative
same,qRT-PCR Assay Average GE/mL,"animal R10, Day 29, Assay LOQ = 100 GE/reaction",0.00E+00 GE/mL
same,qRT-PCR Assay Result,"animal R11, Day 0",Negative
same,qRT-PCR Assay Average GE/mL,"animal R11, Day 0, Assay LOQ = 100 GE/reaction",0.00E+00 GE/mL
same,qRT-PCR Assay Result,"animal R11, Day 1",Negative
same,qRT-PCR Assay Average GE/mL,"animal R11, Day 1, Assay LOQ = 100 GE/reaction",0.00E+00 GE/mL
same,qRT-PCR Assay Result,"animal R11, Day 2",Negative
same,qRT-PCR Assay Average GE/mL,"animal R11, Day 2, Assay LOQ = 100 GE/reaction",0.00E+00 GE/mL
same,qRT-PCR Assay Result,"animal R11, Day 3",Negative
same,qRT-PCR Assay Average GE/mL,"animal R11, Day 3, Assay LOQ = 100 GE/reaction",0.00E+00 GE/mL
same,qRT-PCR Assay Result,"animal R11, Day 4",Negative
same,qRT-PCR Assay Average GE/mL,"animal R11, Day 4, Assay LOQ = 100 GE/reaction",0.00E+00 GE/mL
same,qRT-PCR Assay Result,"animal R11, Day 5",Negative
same,qRT-PCR Assay Average GE/mL,"animal R11, Day 5, Assay LOQ = 100 GE/reaction",0.00E+00 GE/mL
same,qRT-PCR Assay Result,"animal R11, Day 6",Negative
same,qRT-PCR Assay Average GE/mL,"animal R11, Day 6, Assay LOQ = 100 GE/reaction",0.00E+00 GE/mL
same,qRT-PCR Assay Result,"animal R11, Day 7",Negative
same,qRT-PCR Assay Average GE/mL,"animal R11, Day 7, Assay LOQ = 100 GE/reaction",0.00E+00 GE/mL
same,qRT-PCR Assay Result,"animal R11, Day 8",Negative
same,qRT-PCR Assay Average GE/mL,"animal R11, Day 8, Assay LOQ = 100 GE/reaction",0.00E+00 GE/mL
same,qRT-PCR Assay Result,"animal R11, Day 9",Negative
same,qRT-PCR Assay Average GE/mL,"animal R11, Day 9, Assay LOQ = 100 GE/reaction",0.00E+00 GE/mL
same,qRT-PCR Assay Result,"animal R11, Day 10",Negative
same,qRT-PCR Assay Average GE/mL,"animal R11, Day 10, Assay LOQ = 100 GE/reaction",0.00E+00 GE/mL
same,qRT-PCR Assay Result,"animal R11, Day 11",Negative
same,qRT-PCR Assay Average GE/mL,"animal R11, Day 11, Assay LOQ = 100 GE/reaction",0.00E+00 GE/mL
same,qRT-PCR Assay Result,"animal R11, Day 14",Negative
same,qRT-PCR Assay Average GE/mL,"animal R11, Day 14, Assay LOQ = 100 GE/reaction",0.00E+00 GE/mL
same,qRT-PCR Assay Result,"animal R11, Day 29",Negative
same,qRT-PCR Assay Average GE/mL,"animal R11, Day 29, Assay LOQ = 100 GE/reaction",0.00E+00 GE/mL
same,qRT-PCR Assay Result,"animal R12, Day 0",Negative
same,qRT-PCR Assay Average GE/mL,"animal R12, Day 0, Assay LOQ = 100 GE/reaction",0.00E+00 GE/mL
same,qRT-PCR Assay Result,"animal R12, Day 1",Negative
same,qRT-PCR Assay Average GE/mL,"animal R12, Day 1, Assay LOQ = 100 GE/reaction",0.00E+00 GE/mL
same,qRT-PCR Assay Result,"animal R12, Day 2",Negative
same,qRT-PCR Assay Average GE/mL,"animal R12, Day 2, Assay LOQ = 100 GE/reaction",0.00E+00 GE/mL
same,qRT-PCR Assay Result,"animal R12, Day 3",Negative
same,qRT-PCR Assay Average GE/mL,"animal R12, Day 3, Assay LOQ = 100 GE/reaction",0.00E+00 GE/mL
same,qRT-PCR Assay Result,"animal R12, Day 4",Negative
same,qRT-PCR Assay Average GE/mL,"animal R12, Day 4, Assay LOQ = 100 GE/reaction",0.00E+00 GE/mL
same,qRT-PCR Assay Result,"animal R12, Day 5",Negative
same,qRT-PCR Assay Average GE/mL,"animal R12, Day 5, Assay LOQ = 100 GE/reaction",0.00E+00 GE/mL
same,qRT-PCR Assay Result,"animal R12, Day 6",Negative
same,qRT-PCR Assay Average GE/mL,"animal R12, Day 6, Assay LOQ = 100 GE/reaction",0.00E+00 GE/mL
same,qRT-PCR Assay Result,"animal R12, Day 7",Negative
same,qRT-PCR Assay Average GE/mL,"animal R12, Day 7, Assay LOQ = 100 GE/reaction",0.00E+00 GE/mL
same,qRT-PCR Assay Result,"animal R12, Day 8",Negative
same,qRT-PCR Assay Average GE/mL,"animal R12, Day 8, Assay LOQ = 100 GE/reaction",0.00E+00 GE/mL
same,qRT-PCR Assay Result,"animal R12, Day 9",Negative
same,qRT-PCR Assay Average GE/mL,"animal R12, Day 9, Assay LOQ = 100 GE/reaction",0.00E+00 GE/mL
same,qRT-PCR Assay Result,"animal R12, Day 10",Negative
same,qRT-PCR Assay Average GE/mL,"animal R12, Day 10, Assay LOQ = 100 GE/reaction",0.00E+00 GE/mL
same,qRT-PCR Assay Result,"animal R12, Day 11",Negative
same,qRT-PCR Assay Average GE/mL,"animal R12, Day 11, Assay LOQ = 100 GE/reaction",0.00E+00 GE/mL
same,qRT-PCR Assay Result,"animal R12, Day 14",Negative
same,qRT-PCR Assay Average GE/mL,"animal R12, Day 14, Assay LOQ = 100 GE/reaction",0.00E+00 GE/mL
same,qRT-PCR Assay Result,"animal R12, Day 29",Negative
same,qRT-PCR Assay Average GE/mL,"animal R12, Day 29, Assay LOQ = 100 GE/reaction",0.00E+00 GE/mL
